Data taken from PubChem BioAssay (NCI).
Where “and” joins values, the source holds several entries; their conditions need not be identical. Equal entries are not always repeated.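 Cultured in 96-well plates, cells were exposed to test compound for 48 hours across five concentrations. GI50 is the concentration that inhibits growth by half. The concentration for full growth arrest is given as TGI.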 Where a SMILES comes first, the peptide text is derived from it. [ ]: non-standard residue; d: D form. The star is where a group is joined. ξ: configuration not given here. X16 = COC1=CC(=O)N(C(=O)C(O*)C(C)C)C1Cc1ccccc1; ξNMe2Val = CC(C)C(C(=O)*)N(C)C; NMeV = CN[CH](C(=O)O)C(C)C

Experiments:
Test in all cases: DTP human tumour cell line panel, 48 h
[1] = system: SNB-75 CNS
[2] = system: MALME-3M melanoma
[3] = system: SF-295 CNS
[4] = system: SK-MEL-28 melanoma
[5] = system: UACC-62 melanoma
[6] = system: UO-31 renal
[7] = system: M14 melanoma
[8] = system: SW-620 colon
[9] = system: OVCAR-4 ovarian
[10] = system: SNB-19 CNS
[11] = system: DU-145 prostate

| SMILES | TGI [1] | TGI [2] | TGI [3] | TGI [4] | TGI [5] | TGI [6] | TGI [7] | TGI [8] | TGI [9] | TGI [10] | TGI [11] | GI50 [3] | GI50 [10] | GI50 [5] | GI50 [6] | GI50 [8] | GI50 [9] | GI50 [1] | GI50 [2] |
| --- | --- | --- | --- | --- | --- | --- | --- | --- | --- | --- | --- | --- | --- | --- | --- | --- | --- | --- | --- |
| Oc1c(Cl)c2nccnc2c2ccccc12 | > 100 µM | > 100 µM | > 100 µM | > 100 µM | > 100 µM | > 100 µM | > 100 µM | > 100 µM | > 100 µM |  |  |  |  |  |  |  |  |  |  |
| On1c(-c2ccccc2)c(-c2c(-c3ccccc3)n(O)c3ccccc23)c2ccccc21 | 94 µM | 79.7 µM | 61.9 µM | > 100 µM | > 100 µM | 53 µM |  |  | > 100 µM | > 100 µM |  |  |  |  |  |  |  |  |  |
| O=S(=O)(O)c1cc(Cl)c(O)c2ncc(Cl)cc12 | > 100 µM |  | > 100 µM | > 100 µM | > 100 µM | > 100 µM | > 100 µM | > 100 µM | > 100 µM | > 100 µM | > 100 µM |  |  |  |  |  |  |  |  |
| O=c1c2cc([N+](=O)[O-])ccc2n2n1Cc1ccccc1CC2 |  | > 100 µM | > 100 µM | > 100 µM | > 100 µM | > 100 µM | > 100 µM | > 100 µM | > 100 µM | > 100 µM | > 100 µM |  |  |  |  |  |  |  |  |
| Cc1cc(Br)c(N2C3=C(CC4=C2CCCC4=O)C(=O)CCC3)c(Br)c1 | > 100 µM |  |  | > 100 µM | > 100 µM | > 100 µM | > 100 µM | > 100 µM | > 100 µM | > 100 µM |  |  |  |  |  |  |  |  |  |
| c1cnc2c(c1)-n1cccc1C1(CCOCC1)NN2 | > 100 µM | > 100 µM | > 100 µM | > 100 µM |  | > 100 µM | > 100 µM | > 100 µM | > 100 µM | > 100 µM |  |  |  |  |  |  |  |  |  |
| C=C1CC2CC[C@@]34C[C@@H]5O[C@@H]6C(O[C@H]7CC[C@H](CC(=O)OC8[C@@H](C)C9OC%10C[C@]%11(C[C@@H]%12O[C@@]%13(C[C@@H](C)[C@@H]%12O%11)C[C@H](C)[C@@H]%11OC%12CC(C(O)CO)OC%12C[C@@H]%11O%13)OC%10CC9O[C@H]8C[C@H]8O[C@@H](CC[C@@H]1O2)C[C@@H](C)C8=C)O[C@@H]7[C@@H]6O3)C5O4 (stereo not given in full) | 0.00367 µM | 0.00977 µM | 0.00266 µM and 0.000528 µM |  | > 1.48 µM | > 1.48 µM | 0.00675 µM | > 1.48 µM | > 1.48 µM | 0.0127 µM |  | < 0.000148 µM | < 0.000148 µM | < 0.000148 µM | 0.505 µM | < 0.000148 µM | > 1.48 µM |  |  |
| COc1ccc(-n2sc3ncc(-c4ccccc4)cc3c2=O)cc1 | > 100 µM |  | > 100 µM | > 100 µM | > 100 µM | 49.7 µM | > 100 µM | > 100 µM | 45.7 µM | 80.8 µM | > 100 µM |  |  |  |  |  |  |  |  |
| CC(C)(C)C1CCC2c3c([nH]c4ccccc34)C3C(=O)N(c4cc(Br)cc(Br)c4)C(=O)C3C2C1 (stereo not given) |  | > 100 µM |  | 25.9 µM | > 100 µM | 46.2 µM | > 100 µM | > 100 µM | 69.7 µM |  | > 100 µM |  |  |  |  |  |  |  |  |
| COC(=O)[C@]1(C)CCCn2c(=O)n(-c3ccccc3)c(=O)n21 | > 100 µM |  | > 100 µM | > 100 µM | > 100 µM | > 100 µM | > 100 µM | > 100 µM | > 100 µM | > 100 µM | > 100 µM |  |  |  |  |  |  |  |  |
| O=C(C=P(c1ccccc1)(c1ccccc1)c1ccccc1)C12CC3CC(CC(C3)C1)C2 | 33.3 µM | 38 µM |  | 31.8 µM | 29.1 µM | 27.7 µM | 32.7 µM | 34.9 µM | 52.9 µM | 27 µM | 39.3 µM |  |  |  |  |  |  |  |  |
| CCOC(=O)CC(C)C(C#N)(OP1(=O)OC(c2ccccc2)C(C)N1C)c1ccccc1 (stereo not given) |  | > 100 µM | > 100 µM | > 100 µM | > 100 µM | > 100 µM | > 100 µM | > 100 µM |  | > 100 µM | > 100 µM |  |  |  |  |  |  |  |  |
| O=C(NCCNCCO)N/N=C/c1cccc([N+](=O)[O-])c1 | > 100 µM | > 100 µM | > 100 µM | > 100 µM | > 100 µM | > 100 µM | > 100 µM | > 100 µM | > 100 µM |  |  |  |  |  |  |  |  |  |  |
| C[N+]1(C)C2Cc3ccccc3C1Cc1ccccc12 |  | > 100 µM | > 100 µM | > 100 µM | > 100 µM | > 100 µM | > 100 µM | > 100 µM | > 100 µM | > 100 µM | > 100 µM |  |  |  |  |  |  |  |  |
| Cc1c(C)c(C)c(-n2c(=O)n(C)c(=O)n2C(C)(C)C)c(C)c1C | > 100 µM |  | > 100 µM | > 100 µM | > 100 µM | > 100 µM | > 100 µM | > 100 µM | > 100 µM | > 100 µM | > 100 µM |  |  |  |  |  |  |  |  |
| COc1ccc(C2SCC(=O)N2N=C2NC(=O)CC(=O)N2)cc1 (stereo not given) | > 100 µM | > 100 µM | > 100 µM | > 100 µM | > 100 µM | > 100 µM | > 100 µM | > 100 µM | > 100 µM |  | > 100 µM |  |  |  |  |  |  |  |  |
| c1cc(-c2cscc2-c2ccsc2)cs1 | > 100 µM |  | > 100 µM | > 100 µM | > 100 µM | > 100 µM | > 100 µM | > 100 µM | > 100 µM |  | > 100 µM |  |  |  |  |  |  |  |  |
| COC1=CC(=O)N(C(=O)C(OC(=O)C2CCCN2C(=O)C2CCCN2C(=O)C(C(C)C)N(C)C(=O)C(NC(=O)C(C(C)C)N(C)C)C(C)C)C(C)C)C1Cc1ccccc1 (stereo not given) (ξNMe2Val-V[NMeV]PP-X16; configuration not given here) |  | > 4 µM | 0.0074 µM and 0.00436 µM | 0.00681 µM | > 4 µM | > 4 µM |  | > 4 µM | > 4 µM | 0.118 µM | 0.00455 µM | < 0.0004 µM | 0.00267 µM | < 0.0004 µM | > 4 µM | < 0.0004 µM | 0.663 µM | < 0.0004 µM | < 0.0004 µM |
| Fc1cccc(F)c1C1SCC2=Nc3ccccc3CN21 (stereo not given) | 81.8 µM |  | > 100 µM | > 100 µM | > 100 µM | > 100 µM | > 100 µM | > 100 µM | > 100 µM | > 100 µM | > 100 µM |  |  |  |  |  |  |  |  |
| O=C(CCN1CCCCC1CCO)Nc1ccc2c(c1)C(=O)c1ccc(NC(=O)CCN3CCCCC3CCO)cc1C2=O (stereo not given) | 9.83 µM | 10.9 µM | 33.9 µM | 23.5 µM | 13.9 µM | > 100 µM |  | 9.88 µM | 45.4 µM | 26.2 µM |  |  |  |  |  |  |  |  |  |
